Measured values from PMC9145865, “Effects of Rare Phytocannabinoids on the Endocannabinoid System of Human Keratinocytes” (International Journal of Molecular Sciences, 2022).
Entries after “also recorded” stand apart in the source; their conditions may differ.

Key:
CB1/2 = experiment: Receptor binding assay on adherent living cells with [3H]CP 55,940; parameters: species or system human; details: HaCaT cells treated 24 h with half-IC50 amount; for total CB1/2 binding activity (in words): vs. control; for CB1/2 Binding Activity (pmol/mg of Protein): 2.5 nM [3H]CP 55,940, mean ± SEM, n = 3
Protocol: We also sought to investigate the effects of half-IC50 doses of pCBs on the functional activity of eCB-binding receptors (CB1/2 and TRPV1) and the AEA and 2-AG metabolizing enzymes (NAPE-PLD, FAAH, DAGLα/β and MAGL) when used to treat HaCaT cells for 24 h, for which an assay procedure was available. To this end, a CB1/2 ligand binding assay was performed using the radiolabeled synthetic cannabinoid [^3H]CP 55,940, which acts as a full agonist of both cannabinoid receptors with high and roughly equal affinity.
The HaCaT cells were seeded into 12-well plates at a density of 2 × 10^4 per well, incubated overnight and then treated with the selected pCBs (6.0 µM of CBG, 4.0 µM of CBC, 9.0 µM of THCV and 13.0 µM CBGA) for 24 h. Each well of the 12-well plates was washed twice with 1 mL of PBS and treated with 500 µL of incubation buffer (50 mM of Tris–HCl, 5 mM of MgCl2 and 1 mM of CaCl2; 0.2% BSA; pH 7.4), preheated to 37 °C and then incubated for 15 min at 37 °C. Then, 2.5 nM of [^3H]CP 55,940 was added and incubation occurred for 1 h in an incubator that was set at 37 °C. Afterward, the buffer was carefully removed and the cells were washed again with an ice-cold washing buffer (50 mM of Tris–HCl and 500 mM of NaCl; 0.1% BSA; pH 7.4). Unspecific binding was determined in the presence of 1 µM of synthetic agonist CP 55,940 [60]. Then, 500 µL of 0.5 M NaOH was added to each well and the cells were pipetted up and down several times in order to be lysed. The resuspension was then transferred to a 10-mL scintillation vial with a liquid scintillation cocktail and radioactivity was immediately read using a scintillation β-counter (Tri-Carb 2810 TR, Perkin Elmer, Waltham, MA, USA), as described in [40].

CB1 [1] = experiment: Western blot protein expression of CB1; type: cell-based, human; details: HaCaT cells, half-IC50 dose, 24 h, vs. control
Protocol: (§1) The HaCaT cells were seeded into 6-well plates at a density of 4 × 10^4 per well, incubated overnight and then treated with the selected pCBs (6.0 µM of CBG, 4.0 µM of CBC, 9.0 µM of THCV and 13.0 µM of CBGA) for 24 h. The cell pellets were collected and then lysed in an ice-cold lysis buffer (10 mM of EDTA, 50 mM of pH 7.4 Tris–HCl, 150 mM of sodium chloride, 1% Triton-X-100, 2 mM of phenylmethylsulfonyl fluoride, 2 mM of sodium orthovanadate, […] of leupeptin and […] of aprotinin). The amount of protein was determined using the Bio-Rad Protein assay (Bio-Rad Laboratories, Hemel Hempstead, UK). An equal amount of protein (60 µg) was loaded onto 10% sodium dodecyl sulfate–polyacrylamide gels and blotted onto polyvinylidene fluoride sheets (Amersham Biosciences, Piscataway, NJ, USA). The membranes were blocked with dried 5% non-fat milk for 1 h and then incubated with suitable primary antibodies. Detection was performed using Azure Biosystems c400 (Dublin, CA, USA). The membranes were stripped using the Restore Western Blot Stripping Buffer from Thermo Fisher Scientific (Waltham, MA, USA) for 30 min under agitation at room temperature, according to the manufacturer’s instructions. The primary antibodies (Table 6) that were used were obtained from the following sources: […]

DAGLα = experiment: Western blot protein expression of DAGLα; type: cell-based, human; details: HaCaT cells, half-IC50 dose, 24 h, vs. control
Protocol: as §1

FAAH = experiment: Western blot protein expression of FAAH; type: cell-based, human; details: HaCaT cells, half-IC50 dose, 24 h, vs. control
Protocol: as §1

MAGL = experiment: Western blot protein expression of MAGL; type: cell-based, human; details: HaCaT cells, half-IC50 dose, 24 h, vs. control
Protocol: as §1

CB2 = experiment: qRT-PCR gene expression of CB2; type: cell-based, human; details: HaCaT cells, half-IC50 dose, 24 h, vs. control
Protocol: (§2) The HaCaT cells were seeded into 6-well plates at a density of 4 × 10^4 per well, incubated overnight and then treated with the selected pCBs (CBG (6.0 µM), CBC (4.0 µM), THCV (9.0 µM) and CBGA (13.0 µM)) for 24 h. The cell pellets were collected and RT-PCR reactions were performed using the RevertAid H Minus First Strand cDNA Synthesis Kit. The relative abundance was assessed via RT quantitative PCR (RT-qPCR) using the SensiFAST SYBR Lo-ROX Kit in an Applied Biosystems 7500 Fast Real-Time PCR System (Life Technologies). To provide the precise quantification of the initial target in each PCR reaction, the amplification plot was examined, as well as the point of early log phase of the product accumulation, which was defined by assigning a fluorescence threshold above the background that was defined as the threshold cycle number or “Ct. Differences” in threshold cycle number that was used to quantify the relative amount of the PCR targets that were contained within each tube. After PCR, a dissociation curve (melting curve) was constructed in the range of 60 °C to 95 °C [62] to evaluate the specificity of the amplification products. The relative expression of the different amplicons was calculated using the delta–delta Ct (ΔΔCt) method and then converted into the relative expression ratio (2^−ΔΔCt) for statistical analysis. All data were normalized to the endogenous reference genes β-actin and glyceraldehyde-3-phosphate dehydrogenase. The specific primers (Table 5) that were used were designed and ordered from Integrated DNA Technologies (IDT; Coralville, IA, USA) with the following sequences: […]

CB1 [2] = experiment: qRT-PCR gene expression of CB1; type: cell-based, human; details: HaCaT cells, half-IC50 dose, 24 h, vs. control
Protocol: as §2

PPARγ = experiment: qRT-PCR gene expression of PPARγ; type: cell-based, human; details: HaCaT cells, half-IC50 dose, 24 h, vs. control
Protocol: as §2

SMILES	total CB1/2 binding activity (in words) (CB1/2)	CB1/2 Binding Activity (pmol/mg of Protein) (CB1/2)	CB1 protein expression (in words) (CB1 [1])	Protein Expression CB1 (CB1 [1])	DAGLα protein expression (in words) (DAGLα)	Protein Expression DAGLα (DAGLα)	FAAH protein expression (in words) (FAAH)	Protein Expression FAAH (FAAH)	MAGL protein expression (in words) (MAGL)	Protein Expression MAGL (MAGL)	gene expression of CB2 (in words) (CB2)	Gene Expression CB1 (CB1 [2])	gene expression of CB1 (in words) (CB1 [2])	Gene Expression PPARγ (PPARγ)	gene expression of PPARγ (in words) (PPARγ)	Gene Expression CB2 (CB2)
CCCCCc1cc(O)c(C/C=C(\C)CCC=C(C)C)c(O)c1C(=O)O [CBGA, cannabigerolic acid]	significantly increased	8.373 ± 0.410 pmol/mg of Protein	significantly reduced	↓++++	increased	NAPE-PLD ↑++++ FAAH ↑++++ DAGLα ↑++++ MAGL ↑++++	significantly increased	NAPE-PLD ↑++++ FAAH ↑++++ DAGLα ↑++++ MAGL ↑++++	increased	NAPE-PLD ↑++++ FAAH ↑++++ DAGLα ↑++++ MAGL ↑++++						
CCCCCc1cc(O)c(C/C=C(\C)CCC=C(C)C)c(O)c1 [CBG, cannabigerol]	significantly increased; also recorded: doubled	8.027 ± 0.681 pmol/mg of Protein									significantly upregulate	↑++++	significantly upregulate			
CCCc1cc(O)c2c(c1)OC(C)(C)[C@@H]1CCC(C)=C[C@@H]21 [THCV, Δ^9-tetrahydrocannabivarin]	significantly increased	8.187 ± 0.302 pmol/mg of Protein	significantly reduced	↓+	increased	↑+++			increased	↑++++				↓++++	significantly reduced	
CCCCCc1cc(O)c2c(c1)OC(C)(CCC=C(C)C)C=C2 (stereo not shown) [CBC, cannabichromene]	significantly increased	10.380 ± 0.750 pmol/mg of Protein					significantly increased				significantly downregulated	↓++++	significantly downregulated	↓++	reduced	↓++
